Results published in US20220264878A1, “HERBICIDAL COMPOSITION CONTAINING R-TYPE PYRIDYLOXY CARBOXYLIC ACID DERIVATIVE AND USE THEREOF” (Qingdao Kingagroot Chemical Compound Co., Ltd., priority 2019, published 2022).
Where two headings read alike, the source gives them in different places.

What was measured:
Type in all cases: in vivo
[1] = tested on: Veronica persica^2 (collected in Zhumadian of Henan Province); experiment: Post-emergence foliage spray, pot culture, fresh weight inhibition (Tables 1-48, 51-98, 101-148; 24 days); conditions: Table 88
In short: (§1)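 Greenhouse pot plants (20–30 °C, natural light, 57–72% RH) were sprayed once on foliage at 450 kg/ha and 0.3 MPa, at the 5–6-leaf (grass) or 6–7-leaf (broadleaf) stage. Compounds were in acetone diluted with 0.1% Tween-80 water. Surviving shoots were weighed at 24 days; dead plants counted as zero.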

Solanum nigrum = experiment: as above
In short: as §1

Amaranthus retroflexus [2] = experiment: Post-emergence foliage spray, pot culture, fresh weight inhibition (Tables 151-206; 20 days)
Method: (§2) The above weeds were cultivated by a pot culture method. […] Full and uniform weed seeds were selected, soaked in warm water at 25° C. for 6 hours, and germinated in a 28° C. biochemical incubator (darkness). The weed seeds that had just germinatedwere evenly placed on the surface of the soil and then covered with 0.5-1 cm soil according to the sizes of seeds.
(§3) The technical materials were all dissolved in acetone, and diluted with an aqueous solution containing 0.1% emulsifier Tween-80. The dilution is performed as required.
(§4) A ratio of the active ingredient A to the active ingredient B and amounts thereof in each group depends on the characteristics and toxicity of the two agents, as well as the main application purpose of a corresponding formulation. Based on the pre-tests in this study, the dosage of the active ingredient A and B applied alone and in combination were shown in the tables. Water containing the solvent and emulsifier same with the above groups but free of the agents was used as a blank control.
(§5) In the stage of weeds with 3˜4 leaves, the weeds were thinned out to maintain 15 weeds per pot and 45 weeds for each treatment, then continued to be cultured to 4˜5 leaves stage of grassy weeds, 5˜6 leaves stage of broadleaf weeds, and treated.
(§6) The well-cultured weeds were evenly placed on a platform with an area of 0.5 m^2, and a solution of agents was sprayed on the stems and leaves thereof by the 3WP-2000-type walking spray tower at a dosage of 450 kg/ha and at a spray pressure of 0.3 MPa. After all the solution was sprayed, the valve was closed. After 30 seconds, the door of the spray tower was opened, and the nutritional bowl was taken out. Then the valve was opened, and the spray tube was cleaned by spraying 50 ml of water.
(§7) A pot-culture method was employed. For the cultivation of weeds, please refer to the Section 1.1), and “Pesticide guidelines for laboratory bioactivity tests—herbicides”. As to a method for applying agents, please refer to the section 2.3.2), that is, a foliage treatment was employed. After the treatment, the weeds were routinely cultured in a greenhouse.
(§8) A method for investigating absolute number was employed, wherein whole seedlings of survival weeds were cut off with a blade along the soil surface, and the fresh weight of the weeds was weighed with an analytical balance. For dead weeds, the fresh weight thereof was zero.
(§9) Wherein, in the formula, X represented the fresh weight inhibition rate of the active ingredient A in a dosage of P, and Y represented the fresh weight inhibition rate of the active ingredient B in a dosage of Q.

Capsella bursa-pastoris = experiment: as above; conditions: Capsella bursa-pastoris, 480 h, read-out: Control effect (%) of A applied alone in corresponding dose
Method: as §2, §3, §4, §5, §6, §7, §8, §9

Conyza Canadensis = experiment: as above
Method: (§10) Table 151-206: Digitaria sanguinalis, Amaranthus retroflexus, Conyza Canadensis, Capsella bursa-pastoris, Eleusine indica were collected in Huangdao of Shandong Province, Sinapis arvensis were collected in Sixian of Anhui Province, Alopecurus japonicus were collected in Tianchang of Anhui Province, Veronica didyma were collected in Siyang of Jiangsu Province.
as §2
(§11) The culture was carried out in a controllable sunlight greenhouse at 20 to 30° C., in natural light, and relative humidity of 57% to 72%.
as §3, §4
(§12) Table 1-48, 51-98, 101-148, 151-206: […] per treatment, that is, a total of 60 weeds were treated in one treatment.
as §5, with “Table 151-206: The agents were used for only once in the experiment. In” for “In”
as §6, §7, §8
(§13) Table 151-206: The investigation was performed after 20 days of the treatment for only once.
(§14) Theoretical fresh weight inhibition rate of a combination of two active ingredients in each group was calculated by the Gowing method (E0=X+Y−X*Y/100), and then compared with an actually measured inhibition rate (E), thereby effect of the combination (hereafter referred to as combined effect) on weeds was evaluated: the value of E-E0, which was greater than 10%, corresponded to a synergistic effect, the value of E-E0, which was less than −10%, corresponded to an antagonistic effect, and the value of E-E0, which was from −10% to 10%, corresponded to an additional effect.

Alopecurus japonicus = experiment: as above
Method: as §10, §2, §11, §3, §4, §12
as §5, with “Table 151-206: The agents were used for only once in the experiment. In” for “In”
as §6, §7, §8, §13, §14

Veronica didyma = experiment: as above
Method: as §10, §2, §11, §3, §4, §12
as §5, with “Table 151-206: The agents were used for only once in the experiment. In” for “In”
as §6, §7, §8, §13, §14

Eleusine indica = experiment: as above
Method: as §10, §2, §11, §3, §4, §12
as §5, with “Table 151-206: The agents were used for only once in the experiment. In” for “In”
as §6, §7, §8, §13, §14

Digitaria sanguinalis = experiment: as above; conditions: Digitaria sanguinalis, 480 h, 20 days, read-out: Control effect (%) of A applied alone in corresponding dose; for pest or weed control at 75 g/ha: A 75 g a.i./ha; for pest or weed control at 150 g/ha: A 150 g a.i./ha
Method: as §10, §2, §11, §3, §4, §12
as §5, with “Table 151-206: The agents were used for only once in the experiment. In” for “In”
as §6, §7, §8, §13, §14

Sinapis arvensis = experiment: as above
Method: as §10, §2, §11, §3, §4, §12
as §5, with “Table 151-206: The agents were used for only once in the experiment. In” for “In”
as §6, §7, §8, §13, §14

Acalypha australis = experiment: Post-emergence foliage spray, pot culture, fresh weight inhibition (Tables 1-48, 51-98, 101-148; 24 days)
In short: as §1

Amaranthus retroflexus [3] = experiment: as above
In short: as §1

Chenopodium album = experiment: as above; conditions: Table 95
In short: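 Pot-grown weeds were thinned to 15 per pot (45 per treatment) and sprayed on foliage at the 5–6-leaf stage for grasses or the 6–7-leaf stage for broadleaves. Agents were dissolved in acetone with 0.1% Tween-80 and applied at 450 kg/ha spray volume and 0.3 MPa. Plants were then kept in a greenhouse. Above-ground fresh weight of survivors, with dead plants counted as zero, gave inhibition versus a solvent/emulsifier blank.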

[4] = A alone 75 g a.i./ha, 20 days after treatment
[5] = A alone 150 g a.i./ha, 20 days after treatment

O=C1C(Cl)C(CCl)CN1c1cccc(C(F)(F)F)c1 (stereo not shown) [flurochloridone]
Control effect (%) of B applied alone in corresponding dose ([1]; 75 g a.i./ha): 2.1% | Control effect (%) of B applied alone in corresponding dose ([1]; 150 g a.i./ha): 12.3% | Control effect (%) of B applied alone in corresponding dose ([1]; 300 g a.i./ha): 44.5% | Control effect (%) of B applied alone in corresponding dose ([1]; 600 g a.i./ha): 79.6% | Control effect (%) of B applied alone in corresponding dose (Solanum nigrum; B 75 g a.i./ha): 5.5% | Control effect (%) of B applied alone in corresponding dose (Solanum nigrum; B 150 g a.i./ha): 13.7% | Control effect (%) of B applied alone in corresponding dose (Solanum nigrum; B 300 g a.i./ha): 45.8% | Control effect (%) of B applied alone in corresponding dose (Solanum nigrum; B 600 g a.i./ha): 79.7%

COC(=O)[C@@H](C)Oc1nc(F)c(Cl)c(N)c1Cl [Compound A67]
Control effect (%) of A applied alone in corresponding dose (Amaranthus retroflexus [2]; A 75 g a.i./ha, 20 days): 31.7% | Control effect (%) of A applied alone in corresponding dose (Amaranthus retroflexus [2]; A 150 g a.i./ha, 20 days): 63.9% | pest or weed control at 75 g/ha (Capsella bursa-pastoris; A 75 g a.i./ha, 20 days): 51.4% | pest or weed control at 150 g/ha (Capsella bursa-pastoris; A 150 g a.i./ha, 20 days): 75.6% | Control effect (%) of A applied alone in corresponding dose (Conyza Canadensis; A 75 g a.i./ha, 20 days): 45.9% | Control effect (%) of A applied alone in corresponding dose (Conyza Canadensis; A 150 g a.i./ha, 20 days): 65.6% | Control effect (%) of A applied alone in corresponding dose (Alopecurus japonicus; A 75 g a.i./ha, 20 days): 28.7% | Control effect (%) of A applied alone in corresponding dose (Alopecurus japonicus; A 150 g a.i./ha, 20 days): 52.4% | Control effect (%) of A applied alone in corresponding dose (Veronica didyma; A 75 g a.i./ha, 20 days): 23.2% | Control effect (%) of A applied alone in corresponding dose (Veronica didyma; A 150 g a.i./ha, 20 days): 43.1% | Control effect (%) of A applied alone in corresponding dose (Eleusine indica; A 75 g a.i./ha, 20 days): 42.5% | Control effect (%) of A applied alone in corresponding dose (Eleusine indica; A 150 g a.i./ha, 20 days): 75.3% | pest or weed control at 75 g/ha (Digitaria sanguinalis): 23.4% | pest or weed control at 150 g/ha (Digitaria sanguinalis): 62.2% | Control effect (%) of A applied alone in corresponding dose (Sinapis arvensis; A 75 g a.i./ha, 20 days): 45.7% | Control effect (%) of A applied alone in corresponding dose (Sinapis arvensis; A 150 g a.i./ha, 20 days): 72.8%

O=C(O)c1cc(Oc2ccc(C(F)(F)F)cc2Cl)ccc1[N+](=O)[O-] [acifluorfen-sodium]
Control effect (%) of B applied alone in corresponding dose (Acalypha australis; B 37.5 g a.i./ha): 5.8% | Control effect (%) of B applied alone in corresponding dose (Acalypha australis; B 75 g a.i./ha): 11.6% | Control effect (%) of B applied alone in corresponding dose (Acalypha australis; B 150 g a.i./ha): 46.6% | Control effect (%) of B applied alone in corresponding dose (Acalypha australis; B 300 g a.i./ha): 85.3% | Control effect (%) of B applied alone in corresponding dose (Amaranthus retroflexus [3]; acifluorfen-sodium 37.5 g a.i./ha): 4.4% | Control effect (%) of B applied alone in corresponding dose (Amaranthus retroflexus [3]; acifluorfen-sodium 75 g a.i./ha): 10.3% | Control effect (%) of B applied alone in corresponding dose (Amaranthus retroflexus [3]; acifluorfen-sodium 150 g a.i./ha): 45.1% | Control effect (%) of B applied alone in corresponding dose (Amaranthus retroflexus [3]; acifluorfen-sodium 300 g a.i./ha): 85.0% | Control effect (%) of B applied alone in corresponding dose (Chenopodium album; 37.5 g a.i./ha): 2.0% | Control effect (%) of B applied alone in corresponding dose (Chenopodium album; 75 g a.i./ha): 13.7% | Control effect (%) of B applied alone in corresponding dose (Chenopodium album; 150 g a.i./ha): 45.0% | Control effect (%) of B applied alone in corresponding dose (Chenopodium album; 300 g a.i./ha): 81.0%

C[C@@H](Oc1nc(F)c(Cl)c(N)c1Cl)C(=O)OCc1ccco1 [Compound A163]
Control effect (%) of A applied alone in corresponding dose (Amaranthus retroflexus [2]; [4]): 26.6% | Control effect (%) of A applied alone in corresponding dose (Amaranthus retroflexus [2]; [5]): 53.7% | pest or weed control at 75 g/ha (Capsella bursa-pastoris; [4]): 41.1% | pest or weed control at 150 g/ha (Capsella bursa-pastoris; [5]): 60.5% | Control effect (%) of A applied alone in corresponding dose (Conyza Canadensis; [4]): 39.0% | Control effect (%) of A applied alone in corresponding dose (Conyza Canadensis; [5]): 55.8% | Control effect (%) of A applied alone in corresponding dose (Alopecurus japonicus; [4]): 24.1% | Control effect (%) of A applied alone in corresponding dose (Alopecurus japonicus; [5]): 44.0% | Control effect (%) of A applied alone in corresponding dose (Veronica didyma; [4]): 18.6% | Control effect (%) of A applied alone in corresponding dose (Veronica didyma; [5]): 34.5% | Control effect (%) of A applied alone in corresponding dose (Eleusine indica; [4]): 31.7% | Control effect (%) of A applied alone in corresponding dose (Eleusine indica; [5]): 56.0% | pest or weed control at 75 g/ha (Digitaria sanguinalis): 16.6% | pest or weed control at 150 g/ha (Digitaria sanguinalis): 45.4% | Control effect (%) of A applied alone in corresponding dose (Sinapis arvensis; [4]): 29.6% | Control effect (%) of A applied alone in corresponding dose (Sinapis arvensis; [5]): 47.2%
